In the assay the target is BRD4 protein (Homo sapiens, UniProt O60885). As to the kind of experiment: FRET assay, half maximal inhibitory concentration (IC50). Type of assay: binding. Particulars: BRD4 protein 50 nM, Biotin-H4KAc4 peptide 12.5 nM; List of Classification. On the procedure: The compounds were biologically evaluated by determining the half maximal inhibitory concentration (IC50) by FRET assay. The IC50 is a measure of the effectiveness of a substance in inhibiting a specific biological or biochemical function.
For IC50 determinations, dose-response curves were generated, using a top concentration of 50 μM compound in 12.5% DMSO, followed by 10-fold dilutions in 12.5% DMSO. The composition of the reaction buffer was 50 mM HEPES, pH 7.5; 100 mM NaCl, 0.05% CHAPS.
The reaction was run in a final volume of 25 μl. The BRD4 protein (16.5 μl) was added to wells of 384w white Optiplates (Perkin Elmer) (50 nM final concentration) and 1 μl of compound dilution of DMSO control. Incubation time was 30 minutes at room temperature. In the next step, 2.5 μl Biotin-H4KAc4 peptide (Millipore 13-379) was added to the wells (final concentration was 12.5 nM), and the plates were incubated for 30 minutes at room temperature. Detection was performed by addition of 5 μl of a mix of mAb GST-XL665 (Cisbio 61GSTXLB) (10 nM final concentration) and Streptavidin Cryptate (Cisbio 610SAKLB) (2.4 nM final conc.) in reaction buffer with 0.4M KF and 0.05% BSA). The plates were incubated for one hour prior to reading on an Envision reader (Perkin Elmer)
Data was analyzed using GraphPad Prism, and IC50 data was obtained using non-linear regression curve fit using log(inhibitor) vs response (variable slope). All compounds were considered active although classified (according to the half maximal inhibitory concentration (IC50) by FRET assay) as follows: […]
As for `O=C(Nc1ccc2nc(O)cc(Cl)c2c1)c1cc(CN2CCOCC2)cnc1N1CCOCC1` [Compound-91, N-(4-chloro-2-hydroxy-6-quinolyl)-2-morpholino-5-(morpholinomethyl)pyridine-3-carboxamide], the IC50 (usually the concentration that gives 50% inhibition) is under 200 nM.

With `Cc1cc(=O)nc2ccc(NC(=O)c3cc(CN4CCOCC4)cnc3N3CCCC3)cn12` [Compound-92, N-(4-methyl-2-oxo-pyrido[1,2-a]pyrimidin-7-yl)-5-(morpholinomethyl)-2-pyrrolidin-1-yl-pyridine-3-carboxamide], the IC50 was over 10000 nM. Consider `Cc1cc(O)nc2ccc(NC(=O)c3cc(CN4CCOCC4)cnc3N3CCCC3)nc12` [Compound-93, N-(8-methyl-6-oxo-5H-1,5-naphthyridin-2-yl)-5-(morpholinomethyl)-2-pyrrolidin-1-yl-pyridine-3-carboxamide], for which the IC50 lay in the range of 1000 to 10000 nM. `Cc1cc(=O)[nH]c2ccc(NC(=O)c3cc(S(=O)(=O)N4CCOCC4)ccc3N3CCCC3)nc12` [Compound-94, N-(8-methyl-6-oxo-5H-1,5-naphthyridin-2-yl)-5-morpholinosulfonyl-2-pyrrolidin-1-yl-benzamide] displayed an IC50 of over 10000 nM. `Cc1cc(O)nc2ccc(NC(=O)c3ccncc3N3CCCC3)cc12` [Compound-95, N-(2-hydroxy-4-methyl-6-quinolyl)-3-pyrrolidin-1-yl-pyridine-4-carboxamide] came in with an IC50 of under 200 nM.

For `Cc1cc(O)nc2ccc(NC(=O)c3cccnc3N3CCCC3)cc12` [Compound-96, N-(2-hydroxy-4-methyl-6-quinolyl)-2-pyrrolidin-1-yl-pyridine-3-carboxamide], the IC50 is under 200 nM. For the molecule `Cc1cc(O)nc2ccc(NC(=O)c3cccnc3N3CCCC3CN(C)C)cc12` (stereo not drawn) [Compound-97, 2-[2-(dimethylaminomethyl)pyrrolidin-1-yl]-N-(2-hydroxy-4-methyl-6-quinolyl)pyridine-3-carboxamide], the IC50 was under 200 nM.

In the case of `COc1cc(O)nc2ccc(NC(=O)c3cc(CN4CCN(C)CC4)ccc3N3CCCC3)cc12` [Compound-98, N-(2-hydroxy-4-methoxy-6-quinolyl)-5-[(4-methylpiperazin-1-yl)methyl]-2-pyrrolidin-1-yl-benzamide], the IC50 is under 200 nM. Turning to `O=C1CCc2cc(NC(=O)c3cc(S(=O)(=O)N4CCOCC4)ccc3N3CCCC3)ccc2N1` [Compound-100, 5-morpholinosulfonyl-N-(2-oxo-3,4-dihydro-1H-quinolin-6-yl)-2-pyrrolidin-1-yl-benzamide], the IC50 lay in the range of 500 to 1000 nM. As for `CC1CC(=O)Nc2ccc(NC(=O)c3cc(CN4CCOCC4)ccc3N3CCCC3)cc21` (stereo not drawn) [Compound-101, N-(4-methyl-2-oxo-3,4-dihydro-1H-quinolin-6-yl)-5-(morpholinomethyl)-2-pyrrolidin-1-yl-benzamide], the IC50 is under 200 nM. The molecule `CC1CC(=O)Nc2ccc(NC(=O)c3cc(S(=O)(=O)N(C)C)ccc3N3CCCC3)cc21` (stereo not drawn) [Compound-102, 5-(dimethylsulfamoyl)-N-(4-methyl-2-oxo-3,4-dihydro-1H-quinolin-6-yl)-2-pyrrolidin-1-yl-benzamide] displayed an IC50 of under 200 nM. Molecule `CC1(C)CC(=O)Nc2ccc(NC(=O)c3cc(CN4CCOCC4)ccc3N3CCCC3)cc21` [Compound-103, N-(4,4-dimethyl-2-oxo-1,3-dihydroquinolin-6-yl)-5-(morpholinomethyl)-2-pyrrolidin-1-yl-benzamide] displayed an IC50 of 200 to 500 nM. With `CN(C)S(=O)(=O)c1ccc(N2CCCC2)c(C(=O)Nc2ccc3c(c2)C(C)(C)CC(=O)N3)c1` [Compound-104, N-(4,4-dimethyl-2-oxo-1,3-dihydroquinolin-6-yl)-5-(dimethylsulfamoyl)-2-pyrrolidin-1-yl-benzamide], the IC50 is under 200 nM. `Cc1cc(O)nc2ccc(NC(=O)c3cc(N)ccc3-n3cccn3)cc12` [Compound-105, 5-amino-N-(2-hydroxy-4-methyl-6-quinolyl)-2-pyrazol-1-yl-benzamide] displayed an IC50 of 500 to 1000 nM.

In turn, `CN(C)S(=O)(=O)c1ccc(N2CCCC2)c(C(=O)Nc2cc(F)c3c(c2)C(C)(C)CC(=O)N3)c1` [Compound-106, 5-(dimethylsulfamoyl)-N-(8-fluoro-4,4-dimethyl-2-oxo-1,3-dihydroquinolin-6-yl)-2-pyrrolidin-1-yl-benzamide] came in with an IC50 of under 200 nM. As to `COc1cc(NC(=O)c2cc(S(=O)(=O)N(C)C)ccc2N2CCCC2)cc2c(C)cc(O)nc12` [Compound-108, 5-(dimethylsulfamoyl)-N-(2-hydroxy-8-methoxy-4-methyl-6-quinolyl)-2-pyrrolidin-1-yl-benzamide], the IC50 is under 200 nM. `Cc1cc(O)nc2ccc(NC(=O)c3cc(C(F)(F)F)ccc3N3CCCC3)cc12` [Compound-109, N-(2-hydroxy-4-methyl-6-quinolyl)-2-pyrrolidin-1-yl-5-(trifluoromethyl)benzamide] gave an IC50 of under 200 nM.

`Cc1cc(O)nc2ccc(NC(=O)c3cc(S(=O)(=O)N4CCOCC4)ccc3N3CCC(O)C3)cc12` (stereo not drawn) [Compound-110, N-(2-hydroxy-4-methyl-6-quinolyl)-2-(3-hydroxypyrrolidin-1-yl)-5-morpholino-sulfonyl-benzamide]: the IC50 was under 200 nM.

For `COC1CCN(c2ccc(S(=O)(=O)N3CCOCC3)cc2C(=O)Nc2ccc3nc(O)cc(C)c3c2)C1` (stereo not drawn) [Compound-111, N-(2-hydroxy-4-methyl-6-quinolyl)-2-(3-methoxypyrrolidin-1-yl)-5-morpholino-sulfonyl-benzamide], the IC50 is under 200 nM. `Cc1cc(O)nc2ccc(NC(=O)c3cc(CC#N)ccc3N3CCCC3)cc12` [Compound-112, 5-(cyanomethyl)-N-(4-methyl-2-oxo-1,2-dihydroquinolin-6-yl)-2-(pyrrolidin-1-yl)benzamide] had an IC50 of under 200 nM. In turn, `Cc1cc(O)nc2ccc(NC(=O)c3cc(C4(N5CCOCC5)CC4)ccc3N3CCCC3CN(C)C)cc12` (stereo not drawn) [Compound-114, 2-(2-((dimethylamino)methyl)pyrrolidin-1-yl)-N-(2-hydroxy-4-methylquinolin-6-yl)-5-(1-morpholinocyclopropyl) benzamide] came in with an IC50 of under 200 nM. For `Cc1cc(O)nc2ccc(NC(=O)c3cc(C#N)ncc3N3CCC(F)C3)cc12` (stereo not drawn) [Compound-115, 2-cyano-5-(3-fluoropyrrolidin-1-yl)-N-(2-hydroxy-4-methylquinolin-6-yl) isonicotinamide] the value was under 200 nM; for `Cc1cc(O)nc2ccc(NC(=O)c3cc(C#N)ncc3N3CCOCC3)cc12` [Compound-116, 2-cyano-N-(2-hydroxy-4-methylquinolin-6-yl)-5-morpholinoisonicotinamide], under 200 nM. Consider `Cc1cc(O)nc2ccc(NC(=O)c3cccnc3N3CCOCC3C)cc12` (stereo not drawn) [Compound-120, N-(2-hydroxy-4-methyl-6-quinolyl)-2-(3-methylmorpholin-4-yl)pyridine-3-carboxamide], for which the IC50 was under 200 nM. `Cc1cc(O)nc2ccc(NC(=O)c3cccnc3N3CCCC3CN(C)C)cc12` (stereo not drawn) [Compound-121, 2-[2-(dimethylaminomethyl)pyrrolidin-1-yl]-N-(2-hydroxy-4-methyl-6-quinolyl)pyridine-3-carboxamide] registered an IC50 of under 200 nM.

`Cc1cc(O)nc2ccc(NC(=O)c3cnccc3N3CCOCC3)cc12` [Compound-123, N-(2-hydroxy-4-methyl-6-quinolyl)-4-morpholino-pyridine-3-carboxamide]: the IC50 is under 200 nM. In turn, `Cc1cc(O)nc2ccc(NC(=O)c3cnccc3N3CCCC3)cc12` [Compound-124, N-(2-hydroxy-4-methyl-6-quinolyl)-4-pyrrolidin-1-yl-pyridine-3-carboxamide] registered an IC50 of 200 to 500 nM. The molecule `Cc1cc2nc(O)cc(C)c2cc1NC(=O)c1cccnc1N1CCOCC1` [Compound-125, N-(2-hydroxy-4,7-dimethyl-6-quinolyl)-2-morpholino-pyridine-3-carboxamide] yielded an IC50 of 500 to 1000 nM. As to `Cc1cc2nc(O)cc(C)c2cc1NC(=O)c1cccnc1N1CCC(F)C1` (stereo not drawn) [Compound-126, 2-(3-fluoropyrrolidin-1-yl)-N-(2-hydroxy-4,7-dimethyl-6-quinolyl)pyridine-3-carboxamide], the IC50 fell in the range of 500 to 1000 nM. `Cc1cc2nc(O)cc(C)c2cc1NC(=O)c1cccnc1N1CCC(F)(F)C1` [Compound-127, 2-(3,3-difluoropyrrolidin-1-yl)-N-(2-hydroxy-4,7-dimethyl-6-quinolyl)pyridine-3-carboxamide] returned an IC50 of 200 to 500 nM.

The molecule `CC(C)c1cc(O)nc2ccc(NC(=O)c3cccnc3N3CCOCC3)cc12` [Compound-129] came in with an IC50 of 1000 to 10000 nM. For `CN1Cc2cc(NC(=O)c3cccnc3N3CCOCC3)ccc2NC1=O` [Compound-130, N-(3-methyl-2-oxo-1,4-dihydroquinazolin-6-yl)-2-morpholino-pyridine-3-carboxamide] the value was 1000 to 10000 nM; for `CN1C(=O)CCc2cc(NC(=O)c3cccnc3N3CCOCC3)ccc21` [Compound-131, N-(1-methyl-2-oxo-3,4-dihydroquinolin-6-yl)-2-morpholino-pyridine-3-carboxamide], 1000 to 10000 nM.
